Source: US20200030368A1, “A POLYMER NETWORK, METHOD FOR PRODUCTION, AND USES THEREOF” (priority 2016, published 2020)

What was measured:
A. baumannii = assay: Resistance study by serial passaging at sub-MIC; assay type: cell-based; details: 14 passages at sub-MIC (MIC/2)
Description: (§1) Two control antibiotics norfloxacin and colistin were chosen for S. aureus and for A. baumannii, respectively. In case of norfloxacin and colistin also, the initial MIC values were determined against respective bacteria. After the initial MIC experiment, serial passaging was initiated by transferring bacterial suspension grown at the sub-MIC of the polymer/antibiotics and was subjected to another MIC assay. […] The process was repeated for 14 passages for both S. aureus and A. baumannii respectively. The fold increase in MIC for test polymer to the control antibiotics was plotted against the number of passages to determine the propensity of bacterial resistance development.

S. aureus = assay: Resistance study by serial passaging at sub-MIC; assay type: cell-based; details: 14 passages at sub-MIC (MIC/2)
Description: as §1

For colistin, the “change in MIC on serial passaging” value (A. baumannii) was “gradual increase in MIC”.

`CCn1cc(C(=O)O)c(=O)c2cc(F)c(N3CCNCC3)cc21` [norfloxacin] was tested, and the “change in MIC on serial passaging” value (S. aureus) was “gradual increase in MIC”.
